Tested on: EGFR-Ras-ERK signaling pathway in MCF10A cells
Test: ERK activation by AC EF stimulation (ERKTR reporter) in blocker tests
Type: cell-based

Structure (SMILES): CC(=O)OCOC(=O)CN(CC(=O)OCOC(C)=O)c1ccccc1OCCOc1ccccc1N(CC(=O)OCOC(C)=O)CC(=O)OCOC(C)=O [BAPTA AM]
- effect on ERK activation under AC EF stimulation (BAPTA AM 3 μM): neither Ca2+ chelator (BAPTA AM, 3 μM, Life Technologies), nor ROS quencher (Trolox, 350 μM, Sigma-Aldrich) could block the EF activation of ERK

Structure (SMILES): Cc1c(C)c2c(c(C)c1O)CCC(C)(C(=O)O)O2 (centres unmarked) [Trolox]
- effect on ERK activation under AC EF stimulation (Trolox 350 μM): neither Ca2+ chelator (BAPTA AM, 3 μM, Life Technologies), nor ROS quencher (Trolox, 350 μM, Sigma-Aldrich) could block the EF activation of ERK
